IC50 and Activity data for 13 molecules are collected here from ChEMBL document CHEMBL4842344, “Design, synthesis and biological activity evaluation of novel scopoletin-NO donor derivatives against MCF-7 human breast cancer in vitro and in vivo” (Eur J Med Chem, 2021).

Molecules are shown by their SMILES. The source made the active and inactive calls. The calls are words filed in the database; no cut-off is given here.

Assay [1] deals with MCF7. Kind of assay: Antiproliferative activity against human MCF7 cells assessed as inhibition of cell growth measured after 48 hrs by MTT assay. Format: functional, cell-based. Particulars: MCF7, 48 h.
A further assay has as its system MDA-MB-231. Kind of assay: Antiproliferative activity against human MDA-MB-231 cells assessed as inhibition of cell growth measured after 48 hrs by MTT assay. Format: functional, cell-based. Particulars: MDA-MB-231, 48 h.
Another assay relates to MCF-10A. Kind of assay: Cytotoxicity against human MCF-10A cells assessed as reduction in cell viability measured after 48 hrs by MTT assay. Format: cell-based. (In general: Formazan colour is commonly taken as a measure of viable cells.)
The test system of assay [2] is MCF7. Nature of the assay: Inhibition of cell proliferation in human MCF7 cells assessed as increase in intracellular NO production at 25 uM measured after 2.5 hrs by nitric oxide assay. Format: functional, cell-based.

With `COc1cc2cc(C(=O)Nc3ccc(F)cc3)c(=O)oc2cc1OCCCOc1no[n+]([O-])c1S(=O)(=O)c1ccccc1`, the IC50 with MCF7 [1] came to 0.86 µM; with MDA-MB-231 it was 1.2 µM; in the assay with MCF-10A it was 7.21 µM. Also, in the assay with MCF7 [2], the outcome was Active.

Take `COc1cccc2c1C(=O)c1c(O)c3c(c(O)c1C2=O)C[C@@](O)(C(=O)CO)C[C@@H]3O[C@H]1C[C@H](N)[C@H](O)[C@H](C)O1` [DOXORUBICIN]: the IC50 with MCF7 [1] amounted to 0.51 µM; in the assay on MDA-MB-231 it was 0.55 µM; with MCF-10A it was 0.49 µM.

On to `COc1cc2cc(C(=O)NCCCc3ccc(F)cc3)c(=O)oc2cc1OCCCOc1no[n+]([O-])c1S(=O)(=O)c1ccccc1`, for which the IC50 with MCF7 [1] is 0.6 µM; in the assay on MDA-MB-231, 0.69 µM; in the assay on MCF-10A it was 8.92 µM. Also, the outcome in the assay with MCF7 [2] was Active.

On to `COc1cc2cc(C(=O)NCCc3ccccc3)c(=O)oc2cc1OCCCOc1no[n+]([O-])c1S(=O)(=O)c1ccccc1`, for which the IC50 with MCF7 [1] was found to be 0.64 µM; in the assay on MDA-MB-231, 0.98 µM; in the assay with MCF-10A, 6.33 µM. For the same molecule, in the assay on MCF7 [2], the result was Active.

Turning to `COc1ccc(CNC(=O)c2cc3cc(OC)c(OCCCOc4no[n+]([O-])c4S(=O)(=O)c4ccccc4)cc3oc2=O)cc1`, the IC50 in the assay on MCF7 [1] turned out to be 0.56 µM; in the assay on MDA-MB-231, 0.78 µM; in the assay on MCF-10A, 5.95 µM. Further, the outcome with MCF7 [2] was Active.

Take `COc1ccc(CCNC(=O)c2cc3cc(OC)c(OCCCOc4no[n+]([O-])c4S(=O)(=O)c4ccccc4)cc3oc2=O)cc1`: the IC50 in the assay on MCF7 [1] amounted to 0.75 µM; in the assay with MDA-MB-231, 1.54 µM; in the assay with MCF-10A it was 5.37 µM. The outcome with MCF7 [2] was Active.

In the case of `COc1cc2cc(C(=O)NCCc3ccc(F)cc3)c(=O)oc2cc1OCCCOc1no[n+]([O-])c1S(=O)(=O)c1ccccc1`, the results for the IC50 in the assay on MCF7 [1], with MDA-MB-231 and with MCF-10A were 0.44 µM, 1.11 µM and 7.95 µM, respectively. In addition, the outcome in the assay with MCF7 [2] was Active.

Take `COc1cc2cc(C(=O)Nc3ccccc3)c(=O)oc2cc1OCCCOc1no[n+]([O-])c1S(=O)(=O)c1ccccc1`: the IC50 in the assay with MCF7 [1] came to 0.74 µM; in the assay with MDA-MB-231, 1.19 µM; with MCF-10A it was 9.67 µM. In the assay on MCF7 [2], the result was Active.

Consider `COc1ccc(NC(=O)c2cc3cc(OC)c(OCCCOc4no[n+]([O-])c4S(=O)(=O)c4ccccc4)cc3oc2=O)cc1`, for which the IC50 in the assay with MCF7 [1] worked out at 0.41 µM; with MDA-MB-231, 0.73 µM; with MCF-10A it was 5.47 µM. Moreover, the outcome in the assay with MCF7 [2] was Active.

Turning to `COc1cc2cc(N)c(=O)oc2cc1OCCCOc1no[n+]([O-])c1S(=O)(=O)c1ccccc1`, the IC50 was 2.02 µM in the assay on MCF7 [1], 1.39 µM in the assay on MDA-MB-231 and 6.45 µM with MCF-10A.

Take `COc1cc2cc(C(=O)NCc3ccccc3)c(=O)oc2cc1OCCCOc1no[n+]([O-])c1S(=O)(=O)c1ccccc1`: the IC50 in the assay with MCF7 [1] is 0.74 µM; in the assay with MDA-MB-231, 1.06 µM; with MCF-10A, 7.03 µM. In the assay on MCF7 [2], the outcome was Active.

`COc1cc2ccc(=O)oc2cc1O` [SCOPOLETIN]: the 50% inhibitory concentration (IC50) in the assay with MCF7 [1], in the assay with MDA-MB-231 and in the assay on MCF-10A was above 25 µM in each case.

`COc1cc2cc(C(=O)NCCCc3ccccc3)c(=O)oc2cc1OCCCOc1no[n+]([O-])c1S(=O)(=O)c1ccccc1`: the IC50 was 0.87 µM with MCF7 [1], 0.76 µM with MDA-MB-231 and 5.33 µM with MCF-10A. Moreover, the outcome with MCF7 [2] was Active.

As a reminder, the IC50 is the concentration needed to halve the response being measured.
